SMILES strings stand for the structures. Several values for one entry are separate records, joined by “and”; a condition that tells them apart may be missing. Identical values can stand only once. Entries after “also recorded” stand apart in the source; their conditions may differ. Like-named read-outs stand apart in the source and are kept apart here.

Data set [1] concerns mouse T lymphocytes stimulated with ionomycin plus PMA. Description: T-cell proliferation assay (ionomycin plus PMA induced T-cell stimulation). The class given is cell-based. The procedure:
The principle of this assay, as described in J. Immunology, Vol. 144, pp. 251-258 (1990) by F. Dumont et al, is to measure the proliferation of mouse T lymphocytes stimulated with the combination of ionomycin plus PMA. A positive sample e.g. FK-506, in this assay will inhibit T-cell proliferation, as indicated by reduced tritiated thymidine uptake.
Purified Compound I, as prepared by HPLC above, was dissolved in absolute ethanol at 1 mg/ml.
Spleens from C57B1/6 mice were taken under sterile conditions and gently dissociated in ice-cold RPMI 1640 culture medium (GIBCO, Grand Island, N.Y.) supplemented with 10% heat-inactivated fetal calf serum (GIBCO). Cells were pelleted by centrifugation at 1500 rpm for 8 minutes. Contaminating red cells were removed by treating the pellet with ammonium chloride lysing buffer (GIBCO) for 2 minutes at 4° C. Cold medium was added and cells were again centrifuged at 1500 rpm for 8 minutes. T lymphocytes were then isolated by separation of the cell suspension on nylon wool columns as follows: Nylon wool columns were prepared by packing approximately 4 grams of washed and dried nylon wool into 20 ml plastic syringes. The columns were sterilized by autoclaving at 250° F. for 30 minutes. Nylon wool columns were wetted with warm (37° C.) culture medium and rinsed with the same medium. Washed spleen cells resuspended in warm medium were slowly applied to the nylon wool. The columns were then incubated in an upright position at 37° C. for 1 hour. Non-adherent T lymphocytes were eluted from the columns with warm culture medium and the cell suspensions were spun as above.
Purified T lymphocytes were resuspended at 2.5×10^5 cells/ml in complete culture medium composed of RPMI 1640 medium with 10% heat-inactivated fetal calf serum, […], 1 mM sodium pyruvate, 2×10^-5 M 2-mercaptoethanol and 50 μg/ml gentamycin. Ionomycin was added at 250 ng/ml and PMA at 10 ng/ml. The cell suspension was immediately distributed into 96 well flat-bottom microculture plates (Costar) at 200 μl/well. The control, being the medium without test drug, and various below-indicated dilutions of the sample (above-describedpurified Compound I) to be tested were then added in triplicate wells at 20 μl/well. FR-900506 was used as a standard. The culture plates were then incubated at 37° C. in a humidified atmosphere of 5% CO2 -95% air for 44 hours. The proliferation of T lymphocytes was assessed by measurement of tritiated thymidine incorporation. After 44 hours of culturing, the cells were pulse-labelled with 2 μCi/well of tritiated thymidine (NEN, Cambridge, Mass.). After another 4 hours of incubation, cultures were harvested on glass fiber filters using a multiple sample harvester. Radioactivity of filter discs corresponding to individual wells was measured by standard liquid scintillation counting methods (Betacounter). Mean counts per minute of replicate wells were calculated and the results expressed as percent inhibition of tritiated thymidine uptake (proliferation) as follows: [formula]
1. Mouse T cell cultures were pulsed with ^3 H-thymidine for 4 hours prior to harvesting at 48 hours.

Data set [2] addresses T1, 31-O-desmethylimmunomycin O-methyltransferase (DIMT) (Streptomyces hygroscopicus, UniProt Q9KID5).
T1 construct: about 32 kDa; monomer by gel filtration
T1 sequence (Q9KID5 1-260): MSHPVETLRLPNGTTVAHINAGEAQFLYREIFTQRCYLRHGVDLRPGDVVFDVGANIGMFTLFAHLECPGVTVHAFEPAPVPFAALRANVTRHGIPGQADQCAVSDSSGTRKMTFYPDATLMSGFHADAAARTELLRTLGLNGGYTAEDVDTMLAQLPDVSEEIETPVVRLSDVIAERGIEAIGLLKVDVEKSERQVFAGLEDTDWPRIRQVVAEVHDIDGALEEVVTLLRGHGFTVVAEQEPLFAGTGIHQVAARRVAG
The experiment in a line: S-adenosyl-L-methionine:31-O-desmethylimmunomycin O-methyltransferase (DIMT) assay. Conditions: for inhibition of DIMT activity: result in words. The class given is biochemical, Streptomyces hygroscopicus var. ascomyceticus. As for the experimental part:
The assay was carried out in 1 ml. mixture containing 0.025 mM 31-desmethylimmunomycin, 1 mM MgSO4 and different quantities of the enzyme source in 50 mM phosphate buffer, pH 7.5. Reaction was initiated by the addition of 1 nmole of ^14 C-SAM (S-adenosyl-L-[methyl-^14 C] methionine with the specific activity of 46 mCi/mmole. Incubation of the complete mixture was carried out at 34° C. for 20 minutes and the reaction was terminated by the addition of ethyl acetate. Product of the reaction was extracted with 2 ml of ethyl acetate and 1 ml of the extract was used for TLC and HPLC analysis. For the analysis of the radioactive reaction product (immunomycin), the ethyl acetate extract was spiked with the standard immunomycin and subjected to the TLC with a plate having plastic support. The plastic sheet was developed in chloroform:methanol (9:1) and area showing standard immunomycin under UV-light was cut and the radioactivity in the cut-strip was measured. The amount of the product formed was calculated from the measured radioactivity. For the HPLC analysis of the product of the enzyme reaction, several enzymatic reaction mixtures were pooled and the extract was subjected to the TLC analysis as above. The area on the silica gel plate showing the band having an Rf value identical with the standard immunomycin was scraped and eluted with ethyl acetate. The ethyl acetate extract was washed with water, dried under nitrogen and the residue was subjected to the HPLC analysis on Partisil 5-ODS-3 column with acetonitrile:water:phosphoric acid (65:35:0.1) as the eluting solvent. One milliliter fractions were collected and a portion of each fraction was examined for the radioactivity.
Examination of the optimal temperature, pH and metal requirement of the DIMT activity was carried out on the enzyme preparation obtained from DEAE-Sepharose column. For kinetic analysis, a preparation which had been purified through a second MonoQ column chromatography was utilized.

Data set [3] in a line: Physical characteristics of Compound I. The conditions noted are these: methanol. The class given is physicochemical.
The conditions of data set [4]: reputed, EPO Publication No. 0184162; cited from earlier work.
Where [5] appears, read: Mus musculus, T-lymphocyte, Example 3, HPLC purified samples, same set of experiments, read-out: IC50, biological activity.

For the compound `CC[C@@H]1/C=C(\C)C[C@H](C)C[C@H](OC)[C@H]2O[C@@](O)(C(=O)C(=O)N3CCCC[C@H]3C(=O)O[C@H](/C(C)=C/[C@@H]3CC[C@@H](O)[C@H](OC)C3)[C@H](C)[C@@H](O)CC1=O)[C@H](C)C[C@@H]2OC` [FR-900520, 17-Ethyl-1,14-dihydroxy-12-[2-(4-hydroxy-3-methoxycyclohexyl)-1-methylvinyl]-23-25-dimethoxy-13,19,21,27-tetramethyl-11,28-dioxa-4-azatricyclo [22.3.1.0^4,9]octacos-18-ene-2,3,10,16-tetraone], the concentration for half-maximal inhibition (IC50) in data set [1] (setting [5]) was ~1 nM.
As for `CC[C@@H]1/C=C(\C)C[C@H](C)C[C@H](OC)[C@H]2O[C@@](O)(C(=O)C(=O)N3CCCC[C@H]3C(=O)O[C@H](/C(C)=C/[C@@H]3CC[C@@H](O)[C@H](O)C3)[C@H](C)[C@@H](O)CC1=O)[C@H](C)C[C@@H]2OC` [31-O-desmethylimmunomycin], the “apparent Vmax of DIMT” value in data set [2] (31-O-desmethylimmunomycin variable substrate, 40 uM SAM, Lineweaver-Burk) came to 45.5 nmol/h/mg.
As to `Nc1ncnc2c1ncn2[C@@H]1O[C@H](CSCC[C@H](N)C(=O)O)[C@@H](O)[C@H]1O` [S-adenosyl-homocysteine (SAH), S-adenosyl-homocysteine], in data set [2], the “inhibition of DIMT activity” value is on record as “major inhibition”.
Still for that read-out and setting: for `Nc1ncnc2c1ncn2[C@@H]1O[C@H](C[C@@H](N)CC[C@H](N)C(=O)O)[C@@H](O)[C@H]1O` [sinefungin] the value was “major inhibition”.
As to `CC[C@@H]1C=C2COC1(O)C[C@H](O)[C@@H](C)[C@@H](/C(C)=C/[C@@H]1CC[C@@H](O)[C@H](OC)C1)OC(=O)[C@@H]1CCCCN1C(=O)C(=O)[C@]1(O)O[C@H]([C@@H](OC)C[C@@H](C)C2)[C@@H](OC)C[C@H]1C` [Compound II], in data set [1] (setting [5]), the IC50 was ~6 nM. The “activity in the T-cell proliferation assay” value in data set [1] (result in words) is on record as “positive inhibition of T-cell activation; also recorded: positive results”.
With `CC[C@@H]1C=C2COC1(O)C[C@H](O)[C@@H](C)[C@@H](/C(C)=C/[C@@H]1CC[C@@H](O)[C@H](O)C1)OC(=O)[C@@H]1CCCCN1C(=O)C(=O)[C@]1(O)O[C@H]([C@@H](OC)C[C@@H](C)C2)[C@@H](OC)C[C@H]1C` [Compound I], in data set [1] (50 units/ml recombinant IL-2 added at the initiation of culture), the “effect of IL-2 on the inhibition of T-cell proliferation” value was “reversed”. For the same compound, the inhibition at 0.0025 µM in data set [1] (Mus musculus, T-lymphocyte, 2.5 nM, splenic T-cells, ionomycin + PMA, 48 hours, read-out: Percent of Inhibition of tritiated thymidine uptake (proliferation)) came out at 0%. In addition, the inhibition at 0.0049 µM in data set [1] (Mus musculus, T-lymphocyte, 4.9 nM, splenic T-cells, ionomycin + PMA, 48 hours, read-out: Percent of Inhibition of tritiated thymidine uptake (proliferation)) is 0%. Besides, the inhibition at 0.0099 µM in data set [1] (Mus musculus, T-lymphocyte, 9.9 nM, splenic T-cells, ionomycin + PMA, 48 hours, read-out: Percent of Inhibition of tritiated thymidine uptake (proliferation)) came to 39%. Moreover, the inhibition at 0.0197 µM in data set [1] (Mus musculus, T-lymphocyte, 19.7 nM, splenic T-cells, ionomycin + PMA, 48 hours, read-out: Percent of Inhibition of tritiated thymidine uptake (proliferation)) was found to be 65%. Further, in data set [1] (Mus musculus, T-lymphocyte, 39.4 nM, splenic T-cells, ionomycin + PMA, 48 hours, read-out: Percent of Inhibition of tritiated thymidine uptake (proliferation)), the inhibition at 0.0394 µM is 89%. Moreover, in data set [1] (Mus musculus, T-lymphocyte, 78.8 nM, splenic T-cells, ionomycin + PMA, 48 hours, read-out: Percent of Inhibition of tritiated thymidine uptake (proliferation)), the inhibition at 0.0788 µM is 95%. In data set [1] (Mus musculus, T-lymphocyte, 157.6 nM, splenic T-cells, ionomycin + PMA, 48 hours, read-out: Percent of Inhibition of tritiated thymidine uptake (proliferation)), the inhibition at 0.1576 µM is 98%. For the same compound, the inhibition at 0.3152 µM in data set [1] (Mus musculus, T-lymphocyte, 315.2 nM, splenic T-cells, ionomycin + PMA, 48 hours, read-out: Percent of Inhibition of tritiated thymidine uptake (proliferation)) is 98%. Besides, the concentration for half-maximal inhibition (IC50) in data set [1] (setting [5]) was ~11 nM; in data set [1] (Mus musculus, T-lymphocyte, Example 4, table notes, read-out: IC50) it was 0.0115 µg/mL and 14.5 nM; in data set [1] (Mus musculus, T-lymphocyte, generally in the range, read-out: IC50, general range) it was 10 to 18 nM. For the same compound, the Solubility entry in data set [3] is listed as “Solubility in methanol”.
Regarding `N.N.O=S(=O)(O)O` [ammonium sulfate], in data set [2], the “inhibition of DIMT activity” value was “inhibited”.
Consider `O=C(O)CN(CCN(CC(=O)O)CC(=O)O)CC(=O)O` [EDTA], for which the “inhibition of DIMT activity” value in data set [2] is “completely inhibited; also recorded: major inhibition”.
For the compound `C=CC[C@@H]1/C=C(\C)C[C@H](C)C[C@H](OC)[C@H]2O[C@@](O)(C(=O)C(=O)N3CCCC[C@H]3C(=O)O[C@H](/C(C)=C/[C@@H]3CC[C@@H](O)[C@H](OC)C3)[C@H](C)[C@@H](O)CC1=O)[C@H](C)C[C@@H]2OC` [FR-900506, reference compound], in data set [1] (Mus musculus, T-lymphocyte, read-out: inhibition of T-cell proliferation by the standard), the inhibition at 0.01 µg/mL was determined as 99%. Also, the “times more effective than cyclosporin” value in data set [4] was 100 times.

Values taken from US5149701A, “C-31 methylated FR-900520 cyclic hemiketal immunosuppressant agents” (Merck & Co., Inc., priority 1991, dated 1992).
